The source made the active and inactive calls. The rule behind the calls is not given here.
Experiments:
Neuronal progenitor cell [1] = assay: (§1) Induction of neurogenesis in human H9-derived neuronal progenitor cells at 10 uM assessed as increase in Tuj1 positive cells; type: functional
[2] = as §1; type: functional, Neuronal progenitor cell
[3] = Induction of neurogenesis in human H9-derived neuronal progenitor cells at 0.1 to 10 uM assessed as increase in Tuj1 positive cells; type: functional, Neuronal progenitor cell
[4] = Ratio of drug level in brain to plasma in mouse; type: ADME, organism-based; settings: read-out: BPR
Neuronal progenitor cell [5] = assay: Induction of neurogenesis in human H9-derived neuronal progenitor cells at 0.3125 to 10 uM assessed as increase in Tuj1 protein levels incubated for 5 days by Western blotting method; type: functional
[6] = Toxicity in human H9-derived neuronal progenitor cells at 0.1 to 10 uM assessed as increase in DAPI positive cells; type: cell-based; settings: neuronal progenitor cell
[7] = Induction of neurogenesis in mouse neuronal progenitor cells at 0.1 to 10 uM assessed as increase in Tuj1 positive cells; type: functional, Neuronal progenitor cell
[8] = Toxicity in mouse neuronal progenitor cells at 0.1 to 10 uM assessed as increase in DAPI positive cells; type: cell-based; settings: neuronal progenitor cell
Plasma [9] = assay: Dose normalized AUC in C57BL/6 mouse plasma at 1.81 mg/kg, po; type: ADME, organism-based; settings: in vivo
[10] = AUC (0 to t) in C57BL/6 mouse plasma at 1.81 mg/kg, po; type: ADME, organism-based
Mus musculus [11] = assay: Induction of neurogenesis in C57BL/6 mouse assessed as increase in BrdU+NeuN+/BrdU+ cells in dentate gyrus at 8.5 mg/kg, ip qd for 7 days and measured on day 14 by immunohistochemistry relative to control; type: functional
[12] = Unbound fraction in C57BL/6 mouse brain; type: ADME, tissue-based; settings: brain tissue
Brain [13] = assay: Drug concentration in C57BL/6 mouse brain at 13.4 mg/kg, ip; type: ADME, organism-based; settings: in vivo, read-out: Drug uptake
[14] = Half life in C57BL/6 mouse plasma at 13.4 mg/kg, ip; type: ADME, organism-based
[15] = Ratio of drug level in brain to plasma in C57BL/6 mouse at 1.81 mg/kg, po; type: ADME, organism-based; settings: read-out: BPR
Mus musculus [16] = assay: Induction of neurogenesis in C57BL/6 mouse assessed as increase in BrdU+NeuN+/BrdU+ cells in dentate gyrus at 8.5 mg/kg, ip qd for 7 days and measured on day 14 by immunohistochemistry relative to vehicle control; type: functional
[17] = Tmax in C57BL/6 mouse plasma at 1.81 mg/kg, po; type: ADME, organism-based
[18] = Tmax in C57BL/6 mouse plasma at 13.4 mg/kg, ip; type: ADME, organism-based
Brain [19] = assay: Dose normalized AUC in C57BL/6 mouse brain at 1.81 mg/kg, po; type: ADME, organism-based; settings: in vivo
[20] = AUC (0 to t) in C57BL/6 mouse plasma at 13.4 mg/kg, ip; type: ADME, organism-based
[21] = Cmax in C57BL/6 mouse brain at 1.81 mg/kg, po; type: ADME, organism-based; parameters: dose 1.81 mg/kg, route oral
[22] = AUC (0 to t) in C57BL/6 mouse brain at 1.81 mg/kg, po; type: ADME, organism-based
[23] = Tmax in C57BL/6 mouse brain at 1.81 mg/kg, po; type: ADME, organism-based
[24] = Cmax in C57BL/6 mouse plasma at 1.81 mg/kg, po; type: ADME, organism-based; parameters: dose 1.81 mg/kg, route oral
Plasma [25] = assay: Plasma concentration in C57BL/6 mouse at 13.4 mg/kg, ip; type: ADME, organism-based; settings: in vivo
[26] = Cmax in C57BL/6 mouse plasma at 13.4 mg/kg, ip; type: ADME, organism-based; parameters: dose 13.4 mg/kg, route intraperitoneal
Plasma [27] = assay: Dose normalized AUC in C57BL/6 mouse plasma at 13.4 mg/kg, ip; type: ADME, organism-based; settings: in vivo

N#Cc1cccc(COc2ccc3c(c2)CN2C(=O)CN(C4CCN(CC(F)(F)F)CC4)C(=O)[C@H]2C3)c1
fold change (FC) (Neuronal progenitor cell [1]): inactive

N#Cc1cccc(COc2ccc3c(c2)CN2C(=O)[C@H](CO)N(C4CCCC4)C(=O)[C@H]2C3)c1
fold change (FC) (Neuronal progenitor cell [1]): inactive

O=C1[C@H]2Cc3ccc(OCc4cccc(N5CCOCC5)c4)cc3CN2C(=O)CN1C1CCCC1
fold change (FC) [2]: 2.06

N#Cc1cccc(COc2ccc3c(c2)CN2C(=O)CN(C4CCCC4)C(=O)[C@@H]2C3)c1
fold change (FC) (Neuronal progenitor cell [1]): inactive

N#Cc1csc(COc2ccc3c(c2)CN2C(=O)CN(C4CCCC4)C(=O)[C@H]2C3)c1
fold change (FC) [2]: 1.74

CCN(Cc1cccc(C#N)c1)c1ccc2c(c1)CN1C(=O)CN(C3CCCCC3)C(=O)[C@H]1C2
fold change (FC) [2]: 1.45

N#Cc1cccc(COc2ccc3c(c2Br)CN2C(=O)CN(C4CCCC4)C(=O)[C@H]2C3)c1
fold change (FC) [3]: 1.8
Kp [4]: 0.5
Activity (Neuronal progenitor cell [5]): Dose-dependent effect
Activity [6]: Non-toxic
fold change (FC) [7]: 1.2
Activity [8]: Non-toxic
fold change (FC) [2]: 1.9

O=C1[C@H]2Cc3ccc(OCc4cccc(Cl)c4)cc3CN2C(=O)CN1C1CCCC1
fold change (FC) [2]: 2.29

C[C@H]1C(=O)N2Cc3cc(OCc4cccc(C#N)c4)ccc3C[C@@H]2C(=O)N1C1CCCC1
fold change (FC) [2]: 1.98

N#Cc1cccc(CNc2ccc3c(c2)CN2C(=O)CN(C4CCCCC4)C(=O)[C@H]2C3)c1
fold change (FC) [2]: 1.53

N#Cc1cccc(COc2ccc3c(c2)CN2C(=O)CN(C4CCCC4)C(=O)[C@H]2C3)c1
AUC/dose (Plasma [9]): 296 ng·h/mL/mg/kg
AUC(0-t) [10]: 534 ng·h/mL
fold change (FC) (Mus musculus [11]): 1.3
fraction unbound [12]: 0.02
concentration (Brain [13]): 6.1 µM
half-life [14]: 4.95 h
Kp [15]: 0.1
Activity (Mus musculus [16]): 11.7%
Tmax [17]: 1 h
Tmax [18]: 0.25 h
AUC/dose (Brain [19]): 155 ng·h/mL/mg/kg
AUC(0-t) [20]: 10500 ng·h/mL
Cmax [21]: 92 ng/mL
AUC(0-t) [22]: 280 ng·h/mL
Tmax [23]: 1 h
Cmax [24]: 126 ng/mL
concentration (Plasma [25]): 8.4 µM
fold change (FC) [2]: 2.35
Cmax [26]: 3500 ng/mL
AUC/dose (Plasma [27]): 794 ng·h/mL/mg/kg

N#Cc1cccc(OCc2ccc3c(c2)CN2C(=O)CN(C4CCCC4)C(=O)[C@H]2C3)c1
fold change (FC) [2]: 2

N#Cc1cccc(COc2ccc3c(c2)CN2C(=O)CN(CC4CC4)C(=O)[C@H]2C3)c1
fold change (FC) [2]: 1.57

COC[C@H]1C(=O)N2Cc3cc(OCc4cccc(C#N)c4)ccc3C[C@@H]2C(=O)N1C1CCCC1
fold change (FC) [2]: 1.55

O=C1[C@H]2Cc3ccc(OCc4ccc(Cl)cc4)cc3CN2C(=O)CN1C1CCCC1
fold change (FC) [2]: 2.09

C[C@@H]1C(=O)N2Cc3cc(OCc4cccc(C#N)c4)ccc3C[C@@H]2C(=O)N1C1CCCC1
fold change (FC) [2]: 2.41

CCOC(=O)C[C@H]1CC[C@H](N2CC(=O)N3Cc4cc(OCc5cccc(C#N)c5)ccc4C[C@@H]3C2=O)CC1
fold change (FC) [2]: 1.69

N#Cc1cccc(COc2ccc3c(c2)CN2C(=O)CN(C4CCNCC4)C(=O)[C@H]2C3)c1
fold change (FC) (Neuronal progenitor cell [1]): inactive

N#Cc1cccc(COc2ccc3c(c2)CN2C(=O)CN(CC4CCC4)C(=O)[C@H]2C3)c1
fold change (FC) [2]: 2.12

CN(Cc1cccc(C#N)c1)c1ccc2c(c1)CN1C(=O)CN(C3CCCCC3)C(=O)[C@H]1C2
fold change (FC) [2]: 1.67

N#Cc1cccc(COc2ccc3c(c2)CN2C(=O)CN(C4CCNCC4(F)F)C(=O)[C@H]2C3)c1 (stereo not given in full)
fold change (FC) [2]: 1.78

COC[C@@H]1C(=O)N2Cc3cc(OCc4cccc(C#N)c4)ccc3C[C@@H]2C(=O)N1C1CCCC1
fold change (FC) [2]: 2.36

N#Cc1cccc(COc2ccc3c(c2)CN2C(=O)CN(C4CCOCC4)C(=O)[C@H]2C3)c1
fold change (FC) (Neuronal progenitor cell [1]): inactive

N#Cc1cccc(COc2ccc3c(c2)CN2C(=O)CN(C4CCN(CC(F)F)CC4)C(=O)[C@H]2C3)c1
fold change (FC) (Neuronal progenitor cell [1]): inactive

O=C1[C@H]2Cc3ccc(OCc4ccccc4)cc3CN2C(=O)CN1C1CCCC1
fold change (FC) [2]: 2.07

N#Cc1cccc(COc2ccc3c(c2)CN2C(=O)[C@@H](CO)N(C4CCCC4)C(=O)[C@H]2C3)c1
fold change (FC) [2]: 2.36

N#Cc1cccc(COc2ccc3c(c2)CN2C(=O)CN(C4CCCCC4)C(=O)[C@H]2C3)c1
fold change (FC) [2]: 2.02

CCNC(=O)c1cccc(COc2ccc3c(c2)CN2C(=O)CN(C4CCCC4)C(=O)[C@H]2C3)c1
fold change (FC) [2]: 1.65

N#Cc1cccc(COc2ccc3c(c2)CN2C(=O)CN(C4CCN(CCF)CC4)C(=O)[C@H]2C3)c1
fold change (FC) [2]: 1.91

O=C1[C@H]2Cc3ccc(OCc4cccc(F)c4)cc3CN2C(=O)CN1C1CCCC1
fold change (FC) [2]: 1.83
